What was measured:
Carcinogenesis = details: in vivo; cited from earlier work
mammary adenocarcinomas = assay: Development of mammary tumors in laboratory animals fed dietary CLA; format: in vivo; details: for reduction in the total number of mammary adenocarcinomas: laboratory animals
From the text: The synthetically prepared conjugated linoleic acid (CLA) is an effective agent in inhibiting the development of mammary tumors. Laboratory animals fed a diet comprising 0.5%, 1%, or 1.5% by weight conjugated linoleic acid (CLA) have been seen to have a reduction in the total number of mammary adenocarcinomas, in the range of about 30%, 55%, and 60%, respectively. […] Final tumor incidence and cumulative tumor weights are diminished with the administration of a therapeutically effective amount of the purified conjugated linoleic acid (CLA).

breast cancer = details: mice; cited from earlier work
[1] = therapeutically effective amount of purified CLA

CCCCC/C=C\C/C=C\CCCCCCCC(=O)O [Linoleic acid, 9-cis, 12-cis octadecadienoic acid]
effect on Carcinogenesis (Carcinogenesis): enhance Carcinogenesis

conjugated linoleic acid [CLA]
inhibition of mammary cancer and protection against subsequent tumor occurrence (mammary adenocarcinomas; dietary CLA between 0.1 and 0.5% by weight): dose-dependent inhibition | reduction in the total number of mammary adenocarcinomas (mammary adenocarcinomas; diet comprising 0.5% by weight CLA): about 30% | reduction in the total number of mammary adenocarcinomas (mammary adenocarcinomas; diet comprising 1% by weight CLA): ~55% | reduction in the total number of mammary adenocarcinomas (mammary adenocarcinomas; diet comprising 1.5% by weight CLA): ~60% | cumulative tumor weights (mammary adenocarcinomas; [1]): diminished | final tumor incidence (mammary adenocarcinomas; [1]): diminished | effect on breast cancer (breast cancer): preventive effects
